Experimental findings from patent US12162858B2, “Quinoline derivatives as inhibitors of AXL/MER RTK and CSF1R” (QURIENT CO., LTD., priority 2018, dated 2024) are described below.

This experiment has as its target CSF1R (Homo sapiens, UniProt P07333). As to the kind of experiment: Cellular CSF1R inhibition ELISA (p-CSF1R, M-CSF-induced) using THP-1 cells. In kind it is cell-based. Also noted: THP-1 cells act as a model for human monocytes; endogenous in cells; host or cells: THP-1. Put shortly: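 THP-1 cells (2×10^5/well, RPMI/10% FBS) were treated with compound, 10 doses in 3-fold steps, for 24 h at 37 °C in 0.2% DMSO final. They were then stimulated 5 min with human M-CSF (10 ng/ml final) and lysed. p-CSF1R was read by sandwich ELISA (HRP/TMB), with a sigmoidal dose-response fit.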
On the technique in general: An ELISA detects its analyte on a solid surface through an enzyme-linked reagent.

Where only a bound is given, the exact number is not on record here.

Chain of CSF1R (P07333 20-972): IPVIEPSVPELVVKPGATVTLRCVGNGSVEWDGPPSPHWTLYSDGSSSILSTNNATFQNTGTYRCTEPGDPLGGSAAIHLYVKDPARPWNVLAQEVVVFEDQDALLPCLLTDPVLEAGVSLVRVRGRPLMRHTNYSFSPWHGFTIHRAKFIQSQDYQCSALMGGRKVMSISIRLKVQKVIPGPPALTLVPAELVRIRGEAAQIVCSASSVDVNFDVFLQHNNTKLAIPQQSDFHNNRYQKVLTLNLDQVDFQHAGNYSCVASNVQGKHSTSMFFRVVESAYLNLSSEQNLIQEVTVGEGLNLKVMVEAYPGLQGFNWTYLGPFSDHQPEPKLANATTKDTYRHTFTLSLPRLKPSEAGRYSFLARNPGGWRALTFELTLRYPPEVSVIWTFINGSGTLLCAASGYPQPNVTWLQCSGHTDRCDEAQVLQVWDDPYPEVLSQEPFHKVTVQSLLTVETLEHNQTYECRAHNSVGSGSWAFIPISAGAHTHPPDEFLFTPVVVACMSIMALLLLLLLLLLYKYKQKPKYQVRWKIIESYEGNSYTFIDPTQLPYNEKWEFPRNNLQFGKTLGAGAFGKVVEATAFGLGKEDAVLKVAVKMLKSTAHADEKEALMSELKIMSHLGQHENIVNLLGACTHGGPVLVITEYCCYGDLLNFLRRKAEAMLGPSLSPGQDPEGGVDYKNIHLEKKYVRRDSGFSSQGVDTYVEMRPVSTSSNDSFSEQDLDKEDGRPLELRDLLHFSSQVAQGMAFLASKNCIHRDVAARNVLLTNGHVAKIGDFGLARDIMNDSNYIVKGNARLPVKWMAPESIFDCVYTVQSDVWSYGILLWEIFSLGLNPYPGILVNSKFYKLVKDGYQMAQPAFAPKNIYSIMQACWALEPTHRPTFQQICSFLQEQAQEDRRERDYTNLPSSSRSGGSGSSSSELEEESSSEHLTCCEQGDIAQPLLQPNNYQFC

`COc1cc2nccc(Oc3ccc(NC(=O)c4nn(C5CC5)cc4OCC(F)(F)F)nc3)c2cc1OC` [Compound 5] yielded an IC50 of less than 0.5 µM.

`COc1cc2nccc(Oc3ccc(NC(=O)c4nn(C5CCOC5)cc4OCC(F)(F)F)c(F)c3)c2cc1OC` (stereo not shown) [Compound 77] showed an IC50 not below 1 µM.

Regarding `COc1cc2nccc(Oc3ccc(NC(=O)c4nn(C5CCNC5)cc4OCC(F)(F)F)cc3F)c2cc1OC` (stereo not shown) [Compound 78], the IC50 is not below 1 µM.

In turn, `COc1cc2nccc(Oc3ccc(NC(=O)c4nn(CCN)cc4OCC(F)(F)F)cc3F)c2cc1OC` [Compound 79] gave an IC50 not below 1 µM.

In turn, `COc1cc2nccc(Oc3ccc(NC(=O)c4nn(CC(C)O)cc4OCC(F)(F)F)cc3F)c2cc1OC` (stereo not shown) [Compound 80] showed a 50% inhibitory concentration (IC50) not below 1 µM.

On to `COc1cc2nccc(Oc3ccc(NC(=O)c4nn(C5CCNC5)cc4OCC(F)(F)F)cc3C)c2cc1OC` (stereo not shown) [Compound 81], for which the IC50 is not below 1 µM.

For `COc1cc2nccc(Oc3ccc(NC(=O)c4nn(CCN)cc4OCC(F)(F)F)cc3C)c2cc1OC` [Compound 82], the IC50 was not below 1 µM.

In turn, `COc1cc2nccc(Oc3ccc(NC(=O)c4nn(CC(C)O)cc4OCC(F)(F)F)cc3C)c2cc1OC` (stereo not shown) [Compound 83] yielded a concentration for half-maximal inhibition (IC50) of less than 0.5 µM.

`COCCn1cc(OCC(F)(F)F)c(C(=O)Nc2ccc(Oc3ccnc4cc(OC)c(OC)cc34)c(C)c2)n1` [Compound 84] registered an IC50 of 0.5 to 1 µM.

Compound `COc1cc2nccc(Oc3ccc(NC(=O)c4nn(C5CCOC5)cc4OCC(F)(F)F)cc3C)c2cc1OC` (stereo not shown) [Compound 85] gave an IC50 of 0.5 to 1 µM.

In turn, `COc1cc2nccc(Oc3ccc(NC(=O)c4nn(C5CCNC5)cc4OCC(F)(F)F)cc3)c2cc1OC` (stereo not shown) [Compound 86] had an IC50 not below 1 µM.

With `COc1cc2nccc(Oc3ccc(NC(=O)c4nn(CC(C)C)cc4OCC(F)(F)F)cc3)c2cc1OC` [Compound 87], the IC50 is 0.5 to 1 µM.

For the compound `COc1cc2nccc(Oc3ccc(NC(=O)c4nn(CCN)cc4OCC(F)(F)F)cc3)c2cc1OC` [Compound 88], the IC50 is not below 1 µM.

The compound `COc1cc2nccc(Oc3ccc(NC(=O)c4nn(CC(C)O)cc4OCC(F)(F)F)cc3)c2cc1OC` (stereo not shown) [Compound 89] registered an IC50 of 0.5 to 1 µM.

As to `COc1cc2nccc(Oc3ccc(NC(=O)c4nn(C5CCOCC5)cc4OCC(F)(F)F)nc3)c2cc1OC` [Compound 90], the half-maximal inhibitory concentration (IC50) was less than 0.5 µM.

Consider `COc1cc2nccc(Oc3ccc(NC(=O)c4nn(C5CCN(C)C5)cc4OCC(F)(F)F)nc3)c2cc1OC` (stereo not shown) [Compound 91], for which the IC50 is less than 0.5 µM.

`COc1cc2nccc(Oc3ccc(NC(=O)c4nn(CCC5CCCC5)cc4OCC(F)(F)F)nc3)c2cc1OC` [Compound 93] gave an IC50 of less than 0.5 µM.

`COc1cc2nccc(Oc3ccc(NC(=O)c4nn(C5CCN(C)C5)cc4OCC(F)(F)F)c(F)c3)c2cc1OC` (stereo not shown) [Compound 94]: the IC50 was not below 1 µM.

`COc1cc2nccc(Oc3ccc(NC(=O)c4nn(CC5COC5)cc4OCC(F)(F)F)c(F)c3)c2cc1OC` [Compound 95] gave an IC50 not below 1 µM.

Usually IC50 stands for the concentration that gives 50% inhibition.
